According to US20100286181A1, “PYRROLE DERIVATIVES WITH ANTIBACTERIAL ACTIVITY” (ASTRAZENECA AB, priority 2006, published 2010):

molecular target: GyrB ATPase activity (E. coli GyrA, E. coli GyrB) (Escherichia coli, UniProt P0AES6); assay: GyrB ATPase inhibition activity assay (ammonium molybdate/malachite green phosphate detection); assay type: biochemical; conditions: figure quoted may be an average of two or more results
Experimental: Compounds may be tested for inhibition of GyrB ATPase activity using an ammonium molybdate/malachite green-based phosphate detection assay (Lanzetta, P. A., L. J. Alvarez, P. S. Reinach, and O. A. Candia, 1979, 100: 95-97). Assays can be performed in multiwell plates in 100 μl reactions containing: 50 mM HEPES buffer pH 7.5, 75 mM ammonium acetate, 5.5 mM magnesium chloride, 0.5 mM ethylenediaminetetraacetic acid, 5% glycerol, 1 mM 1,4-Dithio-DL-threitol, 200 nM bovine serum albumin, 5 μg/ml sheared salmon sperm DNA, 2.5 nM E. coli GyrA, 2.5 nM E. coli GyrB, 250 μM ATP, and compound in dimethylsulfoxide. Reactions can be quenched with 150 μl of ammonium molybdate/malachite green detection reagent containing 1.2 mM malachite green hydrochloride, 8.5 mM ammonium molybdate tetrahydrate, and 1 M hydrochloric acid.
Compounds of the Examples could be expected to have IC50 values of <200 μg/ml in one or both assays described herein above. For Example the following results were obtained in a GyrB ATPase inhibition activity assay substantially similar to the above wherein the figure quoted may be an average of two or more results

SMILES | IC50
CNC(=O)c1nc(N2CCC(NC(=O)c3[nH]c(C)c(Cl)c3Cl)/C(=N/OC)C2)sc1C(=O)O (stereo not drawn) [Example 26, 2-[(3E)-4-{[(3,4-Dichloro-5-methyl-1H-pyrrol-2-yl)carbonyl]amino}-3-(methoxyimino)piperidin-1-yl]-4-[(methylamino)carbonyl]-1,3-thiazole-5-carboxylic acid] | < 9.77 nM
CONC(=O)c1cccc2nc(N3CC[C@@H](NC(=O)c4[nH]c(C)c(Cl)c4Cl)[C@@H](n4ccnn4)C3)sc12 [Example 125, 2-[(3S,4R)-4-{[(3,4-Dichloro-5-methyl-1H-pyrrol-2-yl)carbonyl]amino}-3-(1H-1,2,3-triazol-1-yl)piperidin-1-yl]-N-methoxy-1,3-benzothiazole-7-carboxamide] | < 9.77 nM
COCCNC(=O)c1nc(N2CC[C@@H](NC(=O)c3[nH]c(C)c(Cl)c3Cl)[C@@H](n3cc(Cl)nn3)C2)sc1C(=O)O [Example 108, 2-((3S,4R)-3-(4-Chloro-1H-1,2,3-triazol-1-yl)-4-{[(3,4-dichloro-5-methyl-1H-pyrrol-2-yl)carbonyl]amino}piperidin-1-yl)-4-{[(2-methoxyethyl)amino]carbonyl}-1,3-thiazole-5-carboxylic acid] | < 9.77 nM
COCC(COC)NC(=O)c1nc(N2CC[C@@H](NC(=O)c3[nH]c(C)c(Cl)c3Cl)[C@@H](n3cc(CF)nn3)C2)sc1C(=O)O [Example 112] | < 9.77 nM
COCCn1ccnc1-c1nc(N2CCC(NC(=O)c3[nH]c(C)c(Cl)c3Cl)/C(=N/OC)C2)sc1C(=O)O (stereo not drawn) [Example 27, 2-[(3E)-4-{[(3,4-Dichloro-5-methyl-1H-pyrrol-2-yl)carbonyl]amino}-3-(methoxyimino)piperidin-1-yl]-4-[1-(2-methoxyethyl)-1H-imidazol-2-yl]-1,3-thiazole-5-carboxylic acid] | < 63.5 nM
COCC(COC)NC(=O)c1nc(N2CC[C@@H](NC(=O)c3[nH]c(C)c(Cl)c3Cl)[C@@H](n3cc(C)nn3)C2)sc1C(=O)O [Example 105] | < 9.77 nM
Cc1[nH]c(C(=O)N[C@H]2CCN(c3nc4cccc(C(=O)O)c4s3)C[C@H]2n2ccnc2)c(Cl)c1Cl (racemic) [Example 44, cis(±)2-[4-{[(3,4-Dichloro-5-methyl-1H-pyrrol-2-yl)carbonyl]amino}-3-(1H-imidazol-1-yl)piperidin-1-yl]-1,3-benzothiazole-7-carboxylic acid] | < 9.77 nM
Cc1[nH]c(C(=O)NC2CCN(c3ncc(C(=O)O)s3)CC23OCCO3)c(Cl)c1Cl (stereo not drawn) [Example 11, 2-(10-{[(3,4-Dichloro-5-methyl-1H-pyrrol-2-yl)carbonyl]amino}-1,4-dioxa-7-azaspiro[4.5]dec-7-yl)-1,3-thiazole-5-carboxylic acid] | 17.8 nM
CNC(=O)c1nc(N2CCC(NC(=O)c3[nH]c(C)c(Cl)c3Cl)C3(C2)OCCO3)sc1C(=O)OC(C)C (stereo not drawn) [Example 3, Isopropyl 2-(10-{[(3,4-dichloro-5-methyl-1H-pyrrol-2-yl)carbonyl]amino}-1,4-dioxa-7-azaspiro[4.5]dec-7-yl)-4-[(methylamino)carbonyl]-1,3-thiazole-5-carboxylate] | 270 nM
Cc1[nH]c(C(=O)NC2CCN(c3ncc(C(=O)O)s3)CC23OCC(C)(C)CO3)c(Cl)c1Cl (stereo not drawn) [Example 57, 2-(11-{[(3,4-Dichloro-5-methyl-1H-pyrrol-2-yl)carbonyl]amino}-3,3-dimethyl-1,5-dioxa-8-azaspiro[5.5]undec-8-yl)-1,3-thiazole-5-carboxylic acid] | < 9.77 nM
Cc1[nH]c(C(=O)N[C@H]2CCN(c3ncc(C(=O)O)s3)C[C@H]2N)c(Cl)c1Cl (racemic) [Example 68, cis(±)2-(3-Amino-4-{[(3,4-dichloro-5-methyl-1H-pyrrol-2-yl)carbonyl]amino}piperidin-1-yl)-1,3-thiazole-5-carboxylic acid] | 291 nM
Cc1[nH]c(C(=O)N[C@@H]2CCN(c3ncc(C(=O)O)s3)C[C@@H]2N=[N+]=[N-])c(Cl)c1Cl [Example 102] | < 9.77 nM
